The results in this text go back to patent publication US12667572B2, “Tricyclic compounds useful in the treatment of cancer, autoimmune and inflammatory disorders” (SCHRÖDINGER, INC., priority 2021, dated 2026).

In test [1] the test system is IL10 secretion in OCI-LY10 cells. In words: Human IL10 secretion assay, Assay 1 (HTRF). The class given is cell-based. As to conditions: 24 h incubation, read-out: IL-10 Secretion IC50 [nM] Assay 1. How it is done:
(§1) IL10 is one of the cytokines that are regulated via activation of NF-kB signaling. For example, in ABC-DLBCL cell lines, the activated NF-kB signaling leads to increased IL10 secretion. Inhibition of NF-kB signaling has been shown leading to decreased IL10 secretion.
Assay 1: OCI-LY10 cells were seeded in IMEM supplemented with 20% fetal bovine serum at 3×10^5 cells per well in 96-well round bottom plates (Corning 3799, Corning), treated with 100 nL of 3-fold serial compound dilutions, starting at 10 mM. The final vehicle concentration was 0.1% DMSO in all wells. After 24 h incubation, the cells were transferred to 96-PCR plates (Axygen: PCR-96-FLT-C) and centrifuged, then 16 μL of cell culture media was transferred to HTRF plates and IL10 levels were measured using human IL-10 Assay Kits (Cisbio) using HTRF format. The signals were transformed to percentage of remaining activity by using the high control (HC, median of signal from wells containing cells treated with DMSO) and low control (LC, median of signal from wells with no cells). IC50 values (nM) were determined using 4-parametric curve-fitting and Hill coefficient obtained using Graph Pad Prism (Graph Pad software, Inc, USA) with non-linear regression analysis.

In test [2] the target is T1, full-length MALT1 protein His-MALT1(1-824) (Homo sapiens, UniProt Q9UDY8).
T1 construct: full-length MALT1 protein His-MALT1(1-824); His (N); made in house; host or cells: baculovirus-infected insect cells
T1 sequence (Q9UDY8 1-824): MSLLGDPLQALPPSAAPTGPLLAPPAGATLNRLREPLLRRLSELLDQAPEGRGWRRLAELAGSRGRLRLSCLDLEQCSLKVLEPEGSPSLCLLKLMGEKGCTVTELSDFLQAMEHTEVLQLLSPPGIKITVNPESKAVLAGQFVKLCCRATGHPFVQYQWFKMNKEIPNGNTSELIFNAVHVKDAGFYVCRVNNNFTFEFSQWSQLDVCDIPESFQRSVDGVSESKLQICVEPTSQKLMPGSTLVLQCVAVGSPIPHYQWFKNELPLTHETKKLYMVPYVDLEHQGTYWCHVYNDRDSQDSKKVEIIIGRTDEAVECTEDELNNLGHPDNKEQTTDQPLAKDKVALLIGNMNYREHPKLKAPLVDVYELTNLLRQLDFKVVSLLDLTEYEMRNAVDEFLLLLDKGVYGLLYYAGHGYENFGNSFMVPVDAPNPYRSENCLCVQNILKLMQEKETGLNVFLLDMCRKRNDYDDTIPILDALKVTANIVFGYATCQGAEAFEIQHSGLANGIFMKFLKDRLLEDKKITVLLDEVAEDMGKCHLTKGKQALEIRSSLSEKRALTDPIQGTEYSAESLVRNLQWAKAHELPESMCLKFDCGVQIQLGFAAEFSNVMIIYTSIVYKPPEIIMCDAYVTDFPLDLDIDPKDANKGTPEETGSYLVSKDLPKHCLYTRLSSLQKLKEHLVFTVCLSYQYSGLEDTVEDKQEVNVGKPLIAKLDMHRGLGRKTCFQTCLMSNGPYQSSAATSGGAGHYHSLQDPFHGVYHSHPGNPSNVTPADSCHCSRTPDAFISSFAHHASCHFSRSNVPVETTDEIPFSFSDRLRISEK
In words: MALT1 protease assay, Assay 1 (2 nM MALT1, Ac-LRSR-AMC substrate). In kind it is biochemical. As to conditions: 2 nM MALT1, 50 μM Ac-LRSR-AMC, 2 h pre-incubation, 8 hr incubation at RT. How it is done: MALT1 protease activity was assessed in an in vitro assay using a tetrapeptide as substrate and full-length MALT1 protein His-MALT1(1-824) purified from baculovirus-infected insect cells. The tetrapeptide substrate is Ac-LRSR-AMC (SM Biochemicals) with Km measured at around 100 μM.
The final assay buffer includes 1 nM (Assay 2) or 2 nM (Assay 1) of MALT1 full-length protein, 50 μM Ac-LRSR-AMC substrate, 50 mM Tris pH 7.5, 600 mM Sodium Citrate, 1 mM DTT, 1 mM EDTA, and 0.05% BSA in 384-well plate format using black microtiter square well plates (Optiplate 384-F, Perkin Elmer).
Test compounds were dissolved in 100% DMSO at stock of 10 mM, with final DMSO concentration 0.1%. Test compounds were pre-incubated with MALT1 protein for 2 h at room temperature. Substrate was added after the pre-incubation and fluorescence signal was measured using Envision at excitation 355 nm and emission 460 nm after 8 hr incubation at RT. Increase in the assay signal was linear over this period and proportional with increase in the enzyme content.
The fluorescence units were transformed to percentage of remaining activity by using the high control (HC, median of fluorescence signal from wells containing MALT1 protein, substrate, and DMSO) and low control (LC, median of fluorescence signal from wells with substrate only) with the formula below: […]
IC50 and Hill coefficients were obtained using Graph Pad Prism (Graph Pad software, Inc, USA) with non-linear regression analysis.

Test [3] concerns the target T1, full-length MALT1 protein His-MALT1(1-824). In words: MALT1 protease assay, Assay 2 (1 nM MALT1, Ac-LRSR-AMC substrate). In kind it is biochemical. Particulars: 1 nM MALT1, 50 μM Ac-LRSR-AMC, 2 h pre-incubation, 8 hr incubation at RT. In short, it runs like this: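 Compounds (0.1% DMSO final) sat 2 h at RT with insect-cell-expressed His-MALT1(1-824), in 50 mM Tris pH 7.5, 600 mM sodium citrate, 1 mM DTT, 1 mM EDTA, 0.05% BSA. Cleavage of 50 μM Ac-LRSR-AMC (Km ~100 μM) ran 8 h at RT, read as AMC fluorescence. IC50 and Hill coefficient fitted to % remaining activity.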

The test system of test [4] is IL10 secretion in OCI-LY10 cells. In words: Human IL10 secretion assay, Assay 2 (MSD). In kind it is cell-based. As to conditions: Homo sapiens, 24 h incubation, Meso Scale Discovery, read-out: IL-10 Secretion IC50 [nM] Assay 2. How it is done:
as §1
Assay 2: OCI-LY10 cells were seeded in IMEM supplemented with 20% fetal bovine serum at 4.8×10^5 cells per 160 μL per well in 96-well V-bottom cell culture plates (corning, 3894), treated with 120 nL of 3-fold serial compound dilutions, starting at 4 mM. The final vehicle concentration was 0.075% DMSO in all wells. After a 24 h incubation, human IL-10 precoated plates (Meso Scale Discovery) were washed 3 times with PBST, and 50 μL culture medium was aspirated into the MSD plate and incubated at 4° C. overnight. The supernatant was then discarded, and the wells were washed 3 times with PB ST. SULFO-TAG Anti-human IL-10 Antibody (50×) was diluted 50-fold according to the Meso Scale Protocol, then 25 μL of SULFO-TAG Anti-human IL-10 Antibody (1×) was added. After 2 h of incubation at RT, the supernatant was discarded, and the well was washed 3 times with PBST. 2×read buffer was added and the signal was read on an MSD Sector S600. The effect of a particular compound on IL10 secretion is shown relative to the effect of DMSO; set as 100%. IC50 values (nM) were determined using 4-parametric curve-fitting.

The structures appear in SMILES notation. A value given as a limit tells only on which side of the number the result lay.

As for `Cn1cnc(-c2ncc(NC(=O)C3CC(C)(C)c4c3cnc3cc(Cl)nn43)cc2Cl)c1` (single isomer, unassigned) [Example 35, 2-chloro-N-(5-chloro-6-(1-methyl-1H-imidazol-4-yl)pyridin-3-yl)-8,8-dimethyl-7,8-dihydro-6H-cyclopenta[e]pyrazolo[1,5-a]pyrimidine-6-carboxamide], the IC50 was not below 1000 nM in test [1] and 10 to 100 nM in test [2].

For `CCc1cc2ncc3c(n2n1)C(C)(C)CC3C(=O)Nc1cnc(-n2nccn2)c(Cl)c1` (single isomer, unassigned) [Example 21, N-(5-chloro-6-(2H-1,2,3-triazol-2-yl)pyridin-3-yl)-2-ethyl-8,8-dimethyl-7,8-dihydro-6H-cyclopenta[e]pyrazolo[1,5-a]pyrimidine-6-carboxamide], the results for the IC50 in test [1] and in test [2] were not below 1000 nM and 10 to 100 nM, respectively.

Turning to `CC(C)(O)c1cnn(-c2ncc(NC(=O)C3CC(C)(C)c4c3cnc3cc(Cl)nn43)cc2Cl)n1` (single isomer, unassigned) [Example 23, 2-chloro-N-(5-chloro-6-(4-(2-hydroxypropan-2-yl)-2H-1,2,3-triazol-2-yl)pyridin-3-yl)-8,8-dimethyl-7,8-dihydro-6H-cyclopenta[e]pyrazolo[1,5-a]pyrimidine-6-carboxamide], the results for the IC50 in test [1] and in test [2] were 100 to 1000 nM and less than 10 nM, respectively.

Consider `CC1(C)CCC(C(=O)Nc2cnc(-n3nccn3)c(Cl)c2)c2cnc3cc(Cl)nn3c21` (single isomer, unassigned) [Example 9, 2-chloro-N-(5-chloro-6-(2H-1,2,3-triazol-2-yl)pyridin-3-yl)-9,9-dimethyl-6,7,8,9-tetrahydropyrazolo[1,5-a]quinazoline-6-carboxamide], for which the IC50 was 100 to 1000 nM in test [1] and 10 to 100 nM in test [2].

Regarding `C[C@]1(C(F)(F)F)C[C@H](C(=O)Nc2cnc(-n3nccn3)c(Cl)c2)c2cnc3cc(Cl)nn3c21` (single isomer, unassigned) [Example 38, 2-chloro-N-(5-chloro-6-(2H-1,2,3-triazol-2-yl)pyridin-3-yl)-8-methyl-8-(trifluoromethyl)-7,8-dihydro-6H-cyclopenta[e]pyrazolo[1,5-a]pyrimidine-6-carboxamide], the IC50 is 100 to 1000 nM in test [1] and less than 10 nM in test [2].

With `Cc1cc2ncc3c(n2n1)C(C)(C)C[C@@H]3C(=O)Nc1cnc(-n2nccn2)c(Cl)c1` (single isomer, unassigned) [Example 6, N-(5-chloro-6-(2H-1,2,3-triazol-2-yl)pyridin-3-yl)-2,8,8-trimethyl-7,8-dihydro-6H-cyclopenta[e]pyrazolo[1,5-a]pyrimidine-6-carboxamide], the IC50 in test [1] is 100 to 1000 nM; in test [2], less than 10 nM.

As to `CC1(C)CC(C(=O)Nc2cnc(-n3nccn3)c(Cl)c2)c2cnc3cc(F)nn3c21` (single isomer, unassigned) [Example 33, N-(5-chloro-6-(2H-1,2,3-triazol-2-yl)pyridin-3-yl)-2-fluoro-8,8-dimethyl-7,8-dihydro-6H-cyclopenta[e]pyrazolo[1,5-a]pyrimidine-6-carboxamide], the IC50 is 10 to 100 nM in test [1] and less than 10 nM in test [2].

Regarding `C[C@@]1(C(F)(F)F)C[C@H](C(=O)Nc2cnc(-n3nccn3)c(Cl)c2)c2cnc3cc(Cl)nn3c21` (single isomer, unassigned) [Example 36, 2-chloro-N-(5-chloro-6-(2H-1,2,3-triazol-2-yl)pyridin-3-yl)-8-methyl-8-(trifluoromethyl)-7,8-dihydro-6H-cyclopenta[e]pyrazolo[1,5-a]pyrimidine-6-carboxamide], the IC50 was 100 to 1000 nM in test [1] and less than 10 nM in test [2].

Regarding `CC1(C)CC(C(=O)Nc2cc(N=S(C)(C)=O)nc(C(F)(F)F)c2)c2cnc3cc(F)nn3c21` (single isomer, unassigned) [Example 128, N-(2-((dimethyl(oxo)-λ^6-sulfaneylidene)amino)-6-(trifluoromethyl)pyridin-4-yl)-2-fluoro-8,8-dimethyl-7,8-dihydro-6H-cyclopenta[e]pyrazolo[1,5-a]pyrimidine-6-carboxamide], the IC50 is 10 to 100 nM in test [3] and 100 to 1000 nM in test [4].

`CC1(C)C[C@H](C(=O)Nc2cnc(-n3nccn3)c(C(F)(F)F)c2)c2cnc3cc(Cl)nn3c21` (single isomer, unassigned) [Example 44, N-(6-(2H-1,2,3-triazol-2-yl)-5˜(trifluoromethyl)pyridin-3-yl)-2-chloro-8,8-dimethyl-7,8-dihydro-6H-cyclopenta[e]pyrazolo[1,5-a]pyrimidine-6-carboxamide]: the IC50 is less than 10 nM in test [3] and 100 to 1000 nM in test [4].

`CC1(C)CC(C(=O)Nc2cnc(OC(F)F)c(C#N)c2)c2cnc3cc(F)nn3c21` (single isomer, unassigned) [Example 84, N-(5-cyano-6-(difluoromethoxy)pyridin-3-yl)-2-fluoro-8,8-dimethyl-7,8-dihydro-6H-cyclopenta[e]pyrazolo[1,5-a]pyrimidine-6-carboxamide]: the results for the IC50 in test [3] and in test [4] were less than 10 nM and 10 to 100 nM, respectively.

`CC1(C)CC(C(=O)Nc2cnc(-n3ncc(C4COC4)n3)c(Cl)c2)c2cnc3cc(Cl)nn3c21` (single isomer, unassigned) [Example 111, 2-chloro-N-(5-chloro-6-(4-(oxetan-3-yl)-2H-1,2,3-triazol-2-yl)pyridin-3-yl)-8,8-dimethyl-7,8-dihydro-6H-cyclopenta[e]pyrazolo[1,5-a]pyrimidine-6-carboxamide]: the IC50 is less than 10 nM in test [3] and 10 to 100 nM in test [4].

For orientation: IC50 means the midpoint of a concentration-inhibition curve.
